Assay results taken from paper PMC3297008, “Novel Marine Phenazines as Potential Cancer Chemopreventive and Anti-Inflammatory Agents” (Marine Drugs, 2012).

Assays:
NFκB = assay: TNF-α-induced NFκB luciferase reporter assay in stably-transfected human embryonic kidney cells 293; format: cell-based; settings: for IC50: human embryonic kidney cells 293 NFκB reporter, TNF-α 2 ng/mL, 6 h, read-out: IC50, inhibition of TNF-α-induced NFκB activity
Protocol: Activation of NFκB may promote cell proliferation or prevent cell death through apoptosis. Inhibition of NFκB signaling has potential application for the treatment or prevention of cancer; some inhibitors are known. […] […].
We employed human embryonic kidney cells 293 Panomic (Fremont, CA, USA) for monitoring changes occurring along the NFκB pathway. Stable constructed cells were seeded into sterile 96-well plate at 20 × 10^3 cells per well. Cells maintained in Dulbecco’s modified Eagle’s medium (DMEM) Invitrogen Co. (Carlsbad, CA, USA), supplemented with 10% FBS, 100 units/mL penicillin, 100 µg/mL streptomycin, 2 mM L-glutamine. After 48 h incubation, the medium was replaced and cells were treated with various concentration of test substances dissolved in PBS. TNF-α (Human, Recombinant, E. coli, Calbiochem, Gibbstown, NJ, USA) was used as an activator at a concentration of 2 ng/mL (0.14 nM). The plate was incubated for 6 h. Spent medium was discarded and the cells were washed once with PBS. Cells were lysed using 50 µL (for 96-well plate) Reporter Lysis Buffer from Promega, by incubating for 5 min on a shaker, and stored at −80 °C. The luciferase assay was performed using the Luc assay system from Promega (Madison, WI, USA). The gene product, luciferase enzyme, reacts with luciferase substrate, emitting light which was detected using a luminometer (LUMIstar Galaxy BMG). Data for NFκB constructs are expressed as IC50 values (i.e., concentration required to inhibit TNF-activated NFκB activity by 50%).

COX-2 mRNA expression = COX-2 mRNA expression in LPS-treated RAW 264.7 cells (real time quantitative PCR); format: cell-based; settings: 50 µM
Text: (§1) Figure 2 Effect of phenazines on COX-2 (black) and iNOS (gray) mRNA expression in RAW 264.7 cells. Total RNA was isolated using the TRIZOL® Reagent method (Invitrogen) from RAW 264.7 cells (2 × 10^5 cells/well) after treatment with samples. cDNA was synthesized using the RT^2 First Strand Kit (C-03, SA Biosciences) protocol. cDNA was used for quantitative real time PCRs with fluorescent Power SyBR® Green PCR master mix (Applied Biosystems), employing GAPDH, iNOS, COX-2 specific primers, and a 7300 Real Time PCR System (Applied Biosystems). The results were derived from two independent RNA preparations employing identical triplicates in each analysis and quantitated using GAPDH as the internal control, following the manufacturer’s instructions. (A) GAPDH standard curve for quantitation of iNOS and COX-2 expression; (B) Levels of COX-2 (black) and iNOS (gray) mRNA expression. The concentration and duration of treatment had no significant effect on the viability of Raw 264.7 cells.
(§2) Total mRNA samples were isolated, and cDNA was amplified with specific primers, using GAPDH as housekeeping gene. LPS induced the expression of COX-2 and iNOS mRNA by approximately 11- and 24-fold, respectively. […]
(§3) RAW 264.7 cells (2 × 10^5 cells/well) were treated with test samples and total RNA was isolated with TRIZOL® Reagent (Invitrogen). […] The results were derived from two independent RNA preparations employing identical triplicates in each analysis and quantified using GAPDH as the internal control, following the manufacturer’s instructions. The fluorescence intensity (Rn) corresponding to the cycle of threshold value (Ct) is used to quantitate a given mRNA, employing the GAPDH standard curve (Figure 3A). The equation Y = −3.9408 X + 31.791 was used to quantify the relative mRNA content, where Y represents the number of cycles corresponding to the Ct (i.e., fluorescence intensity for a given mRNA species), and X represents the log copy number (C0) from which the relative content of mRNA was quantitated. […]

RAW 264.7 cells = assay: Cell viability (SRB) of RAW 264.7 cells in the NO assay; format: cell-based; settings: 50 µM
iNOS mRNA expression = iNOS mRNA expression in LPS-treated RAW 264.7 cells (real time quantitative PCR); format: cell-based; settings: 50 µM
Text: as §1, §2, §3

ovine COX-1 = biological target: T1, ovine COX-1 (Ovis aries, UniProt P05979); assay: COX-1 inhibition assay (LC-MS/MS of PGE2); format: biochemical
T1 sequence (P05979 25-600): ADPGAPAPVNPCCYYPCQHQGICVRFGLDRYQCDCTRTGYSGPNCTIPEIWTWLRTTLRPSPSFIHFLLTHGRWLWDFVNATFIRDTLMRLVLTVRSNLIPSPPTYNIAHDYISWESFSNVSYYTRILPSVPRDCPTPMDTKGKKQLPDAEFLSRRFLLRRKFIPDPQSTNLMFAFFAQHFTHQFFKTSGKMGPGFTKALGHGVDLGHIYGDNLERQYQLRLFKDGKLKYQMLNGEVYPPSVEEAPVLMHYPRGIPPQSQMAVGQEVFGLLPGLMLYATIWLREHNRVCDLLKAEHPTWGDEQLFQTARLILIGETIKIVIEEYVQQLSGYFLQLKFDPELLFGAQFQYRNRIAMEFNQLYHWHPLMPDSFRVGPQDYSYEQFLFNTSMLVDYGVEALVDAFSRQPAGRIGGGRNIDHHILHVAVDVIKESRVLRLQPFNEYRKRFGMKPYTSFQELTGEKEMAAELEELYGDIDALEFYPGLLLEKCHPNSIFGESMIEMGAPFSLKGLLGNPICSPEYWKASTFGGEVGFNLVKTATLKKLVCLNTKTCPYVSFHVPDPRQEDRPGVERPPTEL
Protocol: Each COX reaction was initiated by adding 20 µL of arachidonic acid in Tris-HCl (pH 8.0) buffer to give a final concentration of 5 µM. The reaction was terminated after 2 min by adding 20 µL of 2.0 M HCl. The surrogate standard PGE2-d4 was added to correct for errors or degradation during sample handling and for variation in injection volume or instrument response during LC-MS/MS. After 30 min, PGE2 and its surrogate standard were extracted from each incubation mixture using 800 µL of hexane/ethyl acetate (50:50, v/v). The organic phase was removed, evaporated to dryness, and reconstituted in 100 µL methanol/water (50:50, v/v) for analysis using LC-MS/MS with an Applied Biosystems AP4000 triple quadrupole mass spectrometer as described previously. The concentration of PGE2 in each sample was measured using LC-MS/MS, and the percent of COX inhibition by each test solution was determined by comparing the amount of PGE2 produced in the experiment with that produced in the negative control incubation. For IC50 value determination, 12 different concentrations of each inhibitor were assayed three times. The IC50 value of each inhibitor toward COX-1 or COX-2 was determined by plotting and analyzing the inhibition curve data using Graph Pad Prism 5 software. The selectivity of each inhibitor was calculated as the ratio of the IC50 values (COX-1/COX-2).

CC1=C(Cn2c3cccc(=O)c-3nc3ccccc32)CCC(C)(C)C1 [Lavanducyanin 3, lavanducyanin]
IC50 (NFκB): 16.3 µM
suppression of COX-2 mRNA expression (COX-2 mRNA expression): 51%
NO % cell survival (RAW 264.7 cells): 58.3 ± 4.6%
suppression of iNOS mRNA expression (iNOS mRNA expression): 46%
IC50 (ovine COX-1): 30 ± 1.08 µM

CC1=C(Cn2c3ccc(Br)c(=O)c-3nc3ccccc32)CCC(C)(C)C1 [Phenazine 1]
IC50 (NFκB): 4.1 µM
enhancement of NFκB inhibitory activity by bromination at position-2 (NFκB; phenazine 1 compared with lavanducyanin): approximately 4 fold
suppression of COX-2 mRNA expression (COX-2 mRNA expression): 40%
NO % cell survival (RAW 264.7 cells): 68.9 ± 3.8%
suppression of iNOS mRNA expression (iNOS mRNA expression): 21%
IC50 (ovine COX-1): 11 ± 0.53 µM

CC(C)=CCn1c2ccc(Br)c(=O)c-2nc2ccccc21 [Phenazine 2]
IC50 (NFκB): 24.2 µM
suppression of COX-2 mRNA expression (COX-2 mRNA expression): 50%
NO % cell survival (RAW 264.7 cells): 56.0 ± 5.1%
suppression of iNOS mRNA expression (iNOS mRNA expression): 43%
IC50 (ovine COX-1): 5.6 ± 0.61 µM
